From PubChem BioAssay (NCI)
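Where inhibition never reached the appropriate level, the endpoint shown equals the highest concentration tested. Otherwise, values were interpolated linearly from a five-concentration, 48-hour dose response in 96-well plates. TGI is the concentration that stops growth completely.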

Assays:
Experiment in all cases: growth of human tumour cells (NCI), 48 h
[1] = tested on: SK-MEL-28 melanoma
[2] = tested on: NCI-H226 lung
[3] = tested on: HCC-2998 colon
[4] = tested on: UACC-62 melanoma
[5] = tested on: COLO 205 colon
[6] = tested on: NCI-H460 lung
[7] = tested on: SR leukemia
[8] = tested on: MDA-MB-231 breast
[9] = tested on: CAKI-1 renal
[10] = tested on: HS 578T breast

Structure (SMILES)	TGI [1]	TGI [2]	TGI [3]	TGI [4]	TGI [5]	TGI [6]	TGI [7]	TGI [8]	TGI [9]	TGI [10]
CC(=O)OCC1OC(SC2OC(COC(C)=O)C(OC(C)=O)C(OC(C)=O)C2OC(C)=O)C(OC(C)=O)C(OC(C)=O)C1OC(C)=O (configuration not stated)	> 100 µM	> 100 µM	> 100 µM	> 100 µM	> 100 µM	> 100 µM	> 100 µM	> 100 µM	> 100 µM	–
CC(=O)OC(CCC1(C)OC1COc1ccc(CCNC(=O)c2ccccc2)cc1)C(C)(C)OC(C)=O (configuration not stated)	91.8 µM	> 100 µM	–	31.4 µM	58.4 µM	36.7 µM	> 100 µM	–	> 100 µM	–
CCn1cc(C(=O)O)c(=O)c2cc3c(cc21)S(=O)(=O)CC3	> 100 µM	> 100 µM	> 100 µM	> 100 µM	> 100 µM	> 100 µM	–	> 100 µM	> 100 µM	> 100 µM
N#C/C(=C\c1cc(Cl)cc(Cl)c1)c1ccccn1	> 100 µM	85.7 µM	> 100 µM	> 100 µM	> 100 µM	> 100 µM	> 100 µM	–	> 100 µM	–
CC1OC(O[C@H]2C3C=CO[C@@H](OC4OC(CO)C(O)C(O)C4O)C3[C@@]3(COC(=O)/C=C/c4ccc(O)cc4)O[C@@H]23)C(O)C(O)C1O (some centres not stated)	> 100 µM	> 100 µM	> 100 µM	> 100 µM	> 100 µM	> 100 µM	–	> 100 µM	> 100 µM	> 100 µM
N#CCCN(CCC#N)c1ccc(/C=C2\N=C(c3ccccc3)N(NC(N)=S)C2=O)cc1	> 100 µM	> 100 µM	–	> 100 µM	> 100 µM	> 100 µM	–	> 100 µM	> 100 µM	> 100 µM
O=c1[nH]c(=O)n(C2CC(O)C(CO)O2)cc1C1=NC1 (configuration not stated)	> 100 µM	> 100 µM	> 100 µM	> 100 µM	> 100 µM	> 100 µM	–	> 100 µM	–	> 100 µM
CC(=O)O[C@@H]1C2=C(C)C=C(O2)[C@H]2O[C@]2(C)C[C@H]2C=C(C(=O)O2)[C@H](OC(C)=O)CC1[C@@]1(C)CO1 (some centres not stated)	36 µM	> 100 µM	> 100 µM	56.3 µM	27.1 µM	> 100 µM	47.5 µM	78.8 µM	62.8 µM	–
C/C(=C/C(=O)Nn1c(Cc2ccccc2)n[nH]c1=O)C(=O)O	> 100 µM	> 100 µM	> 100 µM	> 100 µM	> 100 µM	> 100 µM	–	> 100 µM	> 100 µM	> 100 µM
O=C(O)c1cnc2[nH]ccn2c1=O	> 100 µM	> 100 µM	> 100 µM	> 100 µM	> 100 µM	> 100 µM	> 100 µM	> 100 µM	–	–
O=C1CCC(=O)N1n1c(Cc2ccc(Cl)cc2)n[nH]c1=O	> 100 µM	> 100 µM	> 100 µM	> 100 µM	> 100 µM	> 100 µM	–	> 100 µM	> 100 µM	> 100 µM
CC(C)C1=CCC2C(=C1)CCC1C(C)(C(=O)O)CCCC21C (configuration not stated) (tested in a mixture with another compound)	> 100 µM	> 100 µM	> 100 µM	> 100 µM	> 100 µM	–	> 100 µM	> 100 µM	> 100 µM	> 100 µM
